According to paper PMC3527569, “Anti-Inflammatory and Vasoprotective Activity of a Retroviral-Derived Peptide, Homologous to Human Endogenous Retroviruses: Endothelial Cell Effects” (PLoS ONE, 2012):
“Also recorded” adds a separate entry of the source. Where no end group is shown, it is not given here.

How the values were obtained:
carrageenan-induced DIC = experiment: Mouse carrageenan-induced DIC model, lethality; format: in vivo, mouse (CD-1); conditions: data not shown
Protocol: Groups of 10 male CD-1 mice were injected i.p. with 0.25 ml of either vehicle (PBS) or peptide in vehicle at varying times prior to the i.p. injection of 1.0 ml of carrageenan (0.45% [w/v] in PBS; Sigma). In experiments where serum cytokine levels were determined, groups of 5 mice were euthanized at 1-, 2-, 4-, 8-, and 24-h post injection of carrageenan, blood collected by cardiac puncture into heparinized syringes, and the resultant plasma stored at −80°C until assayed by ELISA. […] At 1-, 2-, 4-, and 24-h post injection of carrageenan, five mice from each group were euthanized and heparinized blood samples collected from the heart using heparinized syringes for subsequent determinations of WBC (white blood cell) counts, RBC (red blood cell) counts, or PLT (platelet) counts.

[1] = test system: iNOS (inducible nitric oxide synthase) mRNA; experiment: RT-PCR of iNOS mRNA in HUVEC; format: cell-based, human; conditions: for induction of mRNA for iNOS in HUVEC: 50 µM peptide, 3 h, 37°C, quiescent HUVEC, RT-PCR
Protocol: (§1) Cells were cultured with various concentrations of test materials, either with or without stimulus, for varying times. The cells were collected, washed and total RNA isolated using the RNeasy Mini Kit (Qiagen; Valencia, CA). Following isolation the RNA was treated with 7 units of DNase I according to the RNase-Free DNase Set (Qiagen; Valencia, CA) protocol. Using these procedures we usually obtained ∼50 µg of total RNA/10^7 cells. cDNA was prepared from the isolated mRNAs and RT-PCR performed on the target cytokines/chemokines/growth factors using appropriate primer pairs and a control primer pair for β-actin (all from R & D Systems; Minneapolis, MN). RT-PCR was generally performed for 30 cycles for β-actin and 35–45 cycles for iNOS and VEGF.

[2] = qualitative ranking of the three peptides
systolic blood pressure = experiment: SHR rat hypertension model (tail cuff); format: in vivo; conditions: 100 mg/kg orally (gavage), groups of 3 SHR rats, tail cuff, vs 0 h value
Protocol: As part of a general pharmacological screen, MN10021 was evaluated in a rat model of hypertension by MDS-PanLabs (Bothell, WA). […] Blood pressure measurements were made by tail cuff at 1, 2, and 4 h post administration of test compounds. A decrease of ≥10% of the baseline systolic blood pressure is considered significant in this assay.

[3] = test system: inflammatory accumulation of monocytes/macrophages; experiment: Mouse NaIO4-induced inflammatory peritonitis model; format: in vivo, mouse (CD-1); conditions: monocyte/macrophage accumulation at 48 h; for Dose Achieving Maximum Inhibition (nmoles) / Dose Achieving Maximum Inhibition (µg): CD-1 mice, agent s.c. 24 h before i.p. NaIO4; for Maximum Inhibition (%): groups of five CD-1 mice, agent s.c. 24 h before i.p. NaIO4 (5 mM, 1.0 ml), one experiment; for IC50 (nmoles) / IC50 (µg): in vivo dose per mouse, s.c. 24 h before i.p. NaIO4
Protocol: Effects of test compounds on the inflammatory accumulation of monocytes/macrophages or neutrophils in vivo were determined using a mouse peritonitis model. Briefly, groups of five 6–8 week old CD-1 outbred mice (Charles River; Raleigh, NC) were injected intraperitoneally (i.p.) with 1.0 ml of a sterile inflammatory stimulus (NaIO4; 5 mM in sterile isotonic saline; Sigma; St. Louis, MO). This procedure results in a dramatic accumulation of neutrophils in the peritoneal cavity which peaks at 6–8 h post injection, followed by an accumulation of monocytes/macrophages which peaks at 48–72 h post injection. Mice were euthanized by CO2 asphyxiation at either 6 h (for neutrophils) or 48 h (for monocyte/macrophages), the peritoneal cavities lavaged with two 10-ml washes of heparinized (10 u/ml; Sigma; St. Louis, MO) HBSS containing 0.1% (w/v) BSA, the washes pooled, and total and differential cells counts determined for each pooled cell suspension. Each test material was evaluated in a group of five mice, each of which was injected subcutaneously in the thigh with 0.2 ml of test material in HBSS 24 h prior to the i.p. injection of the inflammatory stimulus.

HUVEC = experiment: Staurosporine-induced apoptosis in HUVEC (Cell Death Detection ELISA); format: cell-based, human; conditions: for protection against staurosporine-induced apoptosis: 50 µM peptide 3 h before staurosporine (500 nM), measured 18 h after staurosporine (Figure 11B)
Protocol: Apoptosis was measured in HUVEC using the Cell Death Detection ELISA^PLUS kit (Roche Diagnostics; Indianapolis, IN) according to the manufacturer's instructions. This assay is based on a quantitative sandwich-enzyme-immunoassay using mouse monoclonal antibodies directed against both DNA and histones, respectively. It allows the specific determination of mono- and oligonucleosomes in the cytoplasmic fraction of cell lysates (apoptosis) and in the supernatant of dying cells (necrosis). The apoptotic index (AI) was calculated as
where treatment refers to use of a known apoptosis- or necrosis-inducing agent (staurosporine, TNF-α).

[4] = test system: nitrate in HUVEC supernatants; experiment: NO release (nitrate as nitrite) from HUVEC; format: cell-based, human; conditions: 50 µM peptide
Protocol: HUVEC were grown to 80–90% confluence in 12-well tissue culture plates using defined media provided by Cambrex and supplemented with 10% FBS. Triplicate wells were incubated with either media alone or media containing 50 µM of the indicated peptide. Supernatant samples were removed from each well at 6 h and 24 h post peptide addition and assayed for NO release as measured by the presence of nitrate (converted to nitrite) using a kit supplied by Oxford Biomedical Research (Rochester Hill, MI) according to the manufacturer's instructions.

[5] = test system: human monocyte chemotactic responses; set-up: method as in PMID 1634759, PMID 1534759; conditions: cited from earlier work
lymphocyte proliferation = test system: lymphocyte proliferation; set-up: method as in PMID 1634759, PMID 1534759; conditions: cited from earlier work
inflammation [6] = test system: inflammation; set-up: method as in earlier work; conditions: cited from earlier work
inflammation [7] = test system: inflammation; set-up: method as in earlier work; conditions: cited from earlier work; remark: listed apart in the source
[8] = test system: endothelial nitric oxide synthase (eNOS) mRNA; experiment: RT-PCR of eNOS mRNA in HUVEC; format: cell-based, human; conditions: data not shown
Protocol: as §1

dengue virus = experiment: Vascular leak in liver of mice injected with dengue virus; set-up: species or system mouse; conditions: 1 µg intraperitoneal; dengue virus i.v.; preliminary in vivo studies
iNOS mRNA = iNOS mRNA induction in HUASMC; format: cell-based, human; conditions: compared with MN10021
Protocol: as §1

## CCN(CC)CCCC(C)Nc1c2ccc(Cl)cc2nc2ccc(OC)cc12 (stereo not shown) [quinacrine]
carrageenan-induced DIC
  ability to protect mice in DIC model: no success

## acetyl-GLDLLFLK-acetyl [DUK0004]
[1]
  induction of mRNA for iNOS in HUVEC: comparable
[2]
  relative solubility among DUK0004, DUK0005, DUK0006: least soluble

## C[C@](N)(Cc1ccc(O)c(O)c1)C(=O)O [L-methyldopa, reference compound]
Systolic blood pressure
  decrease in blood pressure at 1 h: 16%
  decrease in blood pressure at 2 h: 23%
  decrease in blood pressure at 4 h: 28%

## O=C(O)Cc1ccccc1Nc1c(Cl)cccc1Cl [Diclofenac, diclofenac]
[3]
  Dose Achieving Maximum Inhibition (nmoles): 314 nmol
  Dose Achieving Maximum Inhibition (µg): 100 µg
  Maximum Inhibition (%): 90%
  IC50 (nmoles): 16 nmol
  IC50 (µg): 5 µg
carrageenan-induced DIC
  ability to protect mice in DIC model: no success

## C[C@@H]1C[C@H]2[C@@H]3CCC4=CC(=O)C=C[C@]4(C)[C@@]3(F)[C@@H](O)C[C@]2(C)[C@@]1(O)C(=O)CO [Dexamethasone]
[3]
  Dose Achieving Maximum Inhibition (nmoles): 204 nmol
  Dose Achieving Maximum Inhibition (µg): 80 µg
  Maximum Inhibition (%): 75%
carrageenan-induced DIC
  ability to protect mice in DIC model: no success

## COc1ccc2c(c1)c(CC(=O)O)c(C)n2C(=O)c1ccc(Cl)cc1 [indomethacin]
carrageenan-induced DIC
  ability to protect mice in DIC model: no success

## Ac-GLDLLYLK-NH2 [DUK0007]
[1]
  induction of mRNA for iNOS in HUVEC: does not induce iNOS
[1]; HUVEC, data not shown
  effect on induction of iNOS by DUK005 when combined 1:1: inhibits the induction of iNOS
HUVEC
  protection against staurosporine-induced apoptosis: no protective effective
[4]; 6 h and ON incubations
  nitrate release, percent of MN10021: ≤ 25%

## CN[C@@H]1C[C@H]2O[C@@](C)([C@@H]1OC)n1c3ccccc3c3c4c(c5c6ccccc6n2c5c31)C(=O)NC4 [staurosporine]
carrageenan-induced DIC
  ability to protect mice in DIC model: no success

## LDLLFL [hexapeptide corresponding to the central six amino acids of DUK0005, studied by other investigators]
[5]
  effect on in vitro human monocyte chemotactic responses: inhibited
Lymphocyte proliferation
  effect on ligand (CD3) and interleukin-2 (IL-2)-induced lymphocyte proliferation: inhibited
Inflammation [6]
  anti-inflammatory activity in mice: did not find this hexapeptide to be anti-inflammatory
Inflammation [7]
  anti-inflammatory activity in guinea pigs: did not find this hexapeptide to be anti-inflammatory

## CC(=O)Nc1ccc(O)cc1 [Acetaminophen, acetaminophen]
[3]
  Dose Achieving Maximum Inhibition (nmoles): 6614 nmol
  Dose Achieving Maximum Inhibition (µg): 1000 µg
  Maximum Inhibition (%): 95%
  IC50 (nmoles): 132 nmol
  IC50 (µg): 20 µg
carrageenan-induced DIC
  ability to protect mice in DIC model: no success

## Ac-GLDLLFLK-NH2 [DUK0005]
[1]
  induction of mRNA for iNOS in HUVEC: most effective; also recorded: as effective as MN10021
[8]
  effect on expression of mRNA for eNOS: Neither MN10021 nor DUK0005 affected
HUVEC
  protection against staurosporine-induced apoptosis: significant protection
HUVEC; 2 mM L-NAME 5 h, then 50 µM peptide 3 h, staurosporine 500 nM ON (Figure 12)
  effect of L-NAME pretreatment on protective effect against staurosporine-induced apoptosis: no effect
HUVEC; peptide added 3 h before staurosporine, up to 50 µM peptide, quadruplicate wells (Figure 10A, 10C)
  maximal protection against staurosporine-induced apoptosis: ~40%
[4]; 6 h or ON
  nitrate release (as measured by nitrite assay) from HUVEC: induced nitrate release
Dengue virus
  effect on vascular leak in the liver of dengue virus-injected mice: inhibit the vascular leak
iNOS mRNA
  induction of iNOS mRNA in HUASMC: as effective as MN10021
[2]
  relative solubility among DUK0004, DUK0005, DUK0006: intermediate

## GLDLLFLK-NH2 [DUK0006]
[1]
  induction of mRNA for iNOS in HUVEC: comparable
[2]
  relative solubility among DUK0004, DUK0005, DUK0006: most soluble

## COc1ccc2cc([C@H](C)C(=O)O)ccc2c1 [naproxen]
carrageenan-induced DIC
  ability to protect mice in DIC model: no success

## N=C(N)NN [aminoguanidine]
carrageenan-induced DIC
  ability to protect mice in DIC model: no success

## GLDLLFLK [DUK0001]
[1]
  induction of mRNA for iNOS in HUVEC: weak induction
